We go through one molecule from patent US12403114B2, “Cannabinoid acid ester compositions and uses thereof” (EPM (IP), INC., priority 2019, dated 2025).

Entries after “also recorded” stand apart in the source; their conditions may differ.

Data set [1] relates to Human hepatoma HepG2 cells. Description: Fat accumulation in hepatocytes (Nile-Red). The data set is classed as cell-based. The settings on record: 0.3 mM oleic:palmitic acids, 24 hr; EPM-301 effect at high (50 and 10 μM) and low (0.025 and 0.001 μM) concentrations, bell-shaped (FIG. 37, 38). As for the experimental part: An in vitro model of fat accumulation in hepatocytes was used to test whether compounds EPM-301 and EPM-302 have the ability to reduce lipid accumulation in hepatocytes Human hepatoma HepG2 cells were maintained at 37° C. in 5% CO2 in DMEM medium supplemented with 10% FCS, 2 mM 1-glutamine, 1 mM sodium pyruvate, 100 U/mL penicillin and […] streptomycin. Free fatty acids (2:1, molar ratio, oleic and palmitic acids) were mixed with bovine serum albumin (BSA). Cells were incubated with fatty acid-BSA complex in FCS-free culture medium at 0.3 mM final concentration of fatty acid and 1% of BSA. Control cell cultures were incubated with medium containing the vehicle. Compounds were tested in a range of concentrations in the presence of fatty acids. After 24 hr of incubation with the compounds, the cells were washed, incubated with 1 μg/mL mixture of Nile-Red/Hoechst solution for 15 mins at 37° C. protected from light. Fluorescence was measured by the Cytation-3 plate reader at ex:488 nm/em:550 nm and ex:350 nm/em:461 nm for Nile-Red and Hoechst, respectively. Results were normalized to total protein levels of each well, and presented as a change in the accumulation of lipids in comparison with Vehicle-treated group.
[…] EPM-301 at 50 μM was used as positive control.
Values are expressed as mean±SEM. […]

Data set [2] concerns partial meniscectomy/ACL transection rat model of surgical induced osteoarthritis and pain induced incapacitance. Description: Weight bearing (incapacitance tester) in rat partial meniscectomy/ACL transection model, Example 5. The class given is in vivo. As for the experimental part: Rats were allowed to acclimatize for 1 week, followed by assessment of their weight bearing preference using an incapacitance meter. Unilateral medical meniscectomy and anterior cruciate ligament ligation (MMX/ACLT) surgery was performed on the right knee of a subject rat. Weight bearing preference was tested before and after surgery. After 2 weeks, treatments with both intra-articular (1) and. intra-peritoneal (6) administrations of EPM-301 began in the EPM-301 group. Weight bearing preference was then assessed 4 and 7 days after the start of therapy.
Wistar Rats (HsdHan female rats 225-249 grams) were acquired from Envigo. The rats were evaluated using an incapacitance tester. They were tested pre-operation, one-week post-operation, two weeks post-operation, prior to injection, 4 and 7 days post injections.
EPM-301 was dissolved in a solution mixture of 1:1:18 EtOH:cremophor:seline to a final concentration of 3.5 mg/mL.
Intra-articular (i.a.) injection was carried out with 100 uL and intra-peritoneal (i.p.) injections were carried out with 150 uL. All were injected i.a. in the first day. EPM-301 was injected via i.p. administration on the first day, and for 5 additional days everyday via i.p. administration.
Student's t-test was performed at the last follow-up time to determine effect of the therapy as primary endpoint. The level of significance was 0.05 alpha. ANOVA was used to compare all time points, a post-hob analysis with the Scheffe all comparisons method was performed. Calculations were performed using the Analyze-it Excel add-on function.
The percentage weight bearing was calculated as the amount of weight born (in grams) on the right hind limb divided by the amount of weight born on the left hind limb. The ratio was expressed as percentage weight bearing. There were 6 animals in the EPM-301 treated group and 4 animals in the control group.

For the molecule `C=C(C)[C@@H]1CCC(C)=CC1c1c(O)cc(CCCCC)c(C(=O)OC)c1O` (stereo partly shown) [EPM-301, cannabidiolic acid methyl ester], the “amount of fat accumulation in hepatocytes” value in data set [1] is listed as “significantly reduce; also recorded: ineffective”. In data set [2] (following injection, 3.5 mg/mL, 100 uL i.a. once plus 150 uL i.p. on 6 days, control group 59.0%), the “Rt limb weight bearing” value was 106.7%. For the same molecule, the “weight bearing, average value” in data set [2] (immediately prior to injection, two weeks following model induction (baseline before treatment)) is reported as 42.25%. Besides, the “Rt/Lt weight bearing, average value” in data set [2] (prior to operation (baseline of the group, before treatment)) was 139.6%.
